Results from patent publication US20230406812A1, “NOVEL AMINOAROMATIC COMPOUND OR PHARMACEUTICALLY ACCEPTABLE SALT THEREOF, AND PHARMACEUTICAL COMPOSITION FOR PREVENTING OR TREATING NEURODEGENERATIVE DISEASES COMPRISING SAME AS ACTIVE INGREDIENT” (INSTITUTE FOR BASIC SCIENCE, priority 2020, published 2023).

How the values were obtained:
[1] = tested on: APP/PS1+GiD Alzheimer's model mouse (APP+DTR); assay: Passive avoidance test (PAT) in APP/PS1+GiD mouse; type: in vivo
Procedure: In the present experiment, APP/PS1+GiD was produced by injecting AAV-GFAP104-DTR-GFP virus into the hippocampus of the APP/PS1 mouse, and hereinafter, is referred to as “APP+DTR”. In addition, the product obtained by injecting AAV-GFAP104-GFP virus into the hippocampus of the APP/PS1 mouse was referred to as “APP+GFP”. In addition, APP+DTR to which the aminoaromatic compound of the present invention, KDS12025 (Example 21) was administered was referred to as “APP+DTR+KDS12025”. In addition, as the WT mouse, APP/PS1 and littermate were used, and the product obtained by injecting AAV-GFAP104-GFP virus into the hippocampus of the WT mouse was referred to as “WT+GFP” and the product obtained by injecting AAV-GFAP104-DTR-GFP virus into the hippocampus of the WT mouse was referred to as “WT+DTR”.
In addition, as a result of PAT, the normal mouse (WT+GFP) remembered the dark room where it was given an electrical stimulation well and took a long time to enter the dark room.

APP/PS1 mouse [2] = assay: Passive avoidance test (PAT) I; type: in vivo; conditions: 3 mg/kg/day IP for 16 days
Procedure: A passive avoidance test is an experiment to check the memory of animals, in which a weak electric stimulation was given in a dark room and it was assessed whether the animal remembered the electrical stimulation.
Since mice preferred a dark room, they have a tendency to move quickly to a dark room when they are in a bright room. […] A time to move from a bright room to a dark room (latency to dark room, sec) was measured, thereby measuring memory of a combination of the electrical stimulation and the dark room. An APP/PS1 mouse which is used as an Alzheimer's animal model was used to perform the passive avoidance test (FIG. 4). A wild type (WT) mouse was used as a control group.
(§1) On the first day of PAT, as an acquisition session, the mouse was allowed to stay in a bright room, and after a certain time, a dark room was opened and a time for the mouse to enter the dark room was measured. When the mouse entered the dark room, an electrical shock (0.5 mA, 2 sec) was given by a foothold. On the second day, as a retrieval session, the mouse was placed in a bright room, and a time for the mouse to enter a dark room was measured. At this time, the door of the dark room was opened first.
The APP/PS1 dementia mouse was intraperitoneally injected with the aminoaromatic compound of the present invention (KDS12008 (Example 1), KDS12017 (Example 16), or KDS12025 (Example 21)) (KDS12008 (Example 1) 30 mg/kg/day (30 mpk); KDS12017 (Example 16) 30 mg/kg/day (30 mpk); KDS12025 (Example 21) 3 mg/kg/day (3 mpk)) for 16 days (intraperitoneal injection, IP).

WT mouse (C57BL/6 mouse) = assay: Single toxicity assessment (lethal dose 50, LD50); type: in vivo
Procedure: The aminoaromatic compound of the present invention, KDS12008 (Example 1), KDS12017 (Example 16), or KDS12025 (Example 21) was intraperitoneally injected at a single dose of 100, 300, and 1000 mg/kg, respectively, into a WT mouse at about 8 weeks of age (C57BL/6 mouse), and it was assessed whether the animal was dead.

APP/PS1 mouse [3] = assay: Passive avoidance test (PAT) II; type: in vivo
Procedure: as §1
3 mg/kg/day (3 mpk) and 10 mg/kg/day (10 mpk) of the aminoaromatic compound of the present invention, KDS12025 (Example 21) was intraperitoneally injected into the APP/PS1 mouse which is used as an Alzheimer's animal model for one week, and the passive avoidance test was performed in the same manner as in Experimental Example 3. The results are illustrated in FIG. 6.

hemoglobin (Hb) = hemoglobin (Hb) (Homo sapiens, UniProt P68871+P69905); assay: Hydrogen peroxide scavenging ability with hemoglobin (Amplex Red H2O2 assay); type: biochemical; conditions: 10 μM H2O2, 80 μg/ml hemoglobin, 37° C. about 30 minutes
Procedure: Amplex Red is a means which turns into a fluorescent substance called resorufin when horse radish peroxidase (HRP) and H2O2 exist together and allows measurement of changes in H2O2, that is, H2O2 assay. […] The experiment was performed by adding hemoglobin instead of HRP to the H2O2 assay by Amplex Red (FIG. 1). The final concentration of each substance was 10 μM of H2O2 and 80 μg/ml of hemoglobin, and the aminoaromatic compound of the present invention was treated by concentration. After the reaction at 37° C. for about 30 minutes as such, fluorescence (excitation: 540 nm, emission: 580 nm) was measured by a microplate reader. At this time, it can be said that fluorescence is proportional to the amount of H2O2. Normalization was performed for each concentration based on a fluorescence value without a drug, and a value at which the fluorescence value was 50%, that is, a half maximal effective concentration (EC50) was determined by a program through statistical processing. The results are shown in the following Table 2, and AAD-2004 was used as a control group.

[4] = tested on: APP/PS1 mouse hippocampus cells; assay: Electrophysiology experiment (tonic GABA); type: in vivo; conditions: 3 mg/kg/day or 10 mg/kg/day
Procedure: The Alzheimer's animal model of Experimental Example 5 was used to confirm the influence of astrocytes and the mechanism causing memory impairment in dementia through an electrophysiology experiment.
Therefore, in the present experimental example, each of the APP/PS1 mouse as the Alzheimer's animal model, the APP/PS1 mouse treated with 3 mg/kg/day or 10 mg/kg/day, respectively, of the aminoaromatic compound of the present invention, KDS12025 (Example 21), and a healthy normal mouse (wild type, WT) was anesthetized, and brain tissues were obtained therefrom to measure an electrical signal of living hippocampus cells. Thus, the tonic GABA which inhibits neurotransmission in a brain cell was measured. The results are illustrated in FIG. 8.

[5] = tested on: APP/PS1 mouse hippocampus astrocytes (GFAP); assay: Immunohistochemistry (IHC) I of brain tissue, GFAP; type: in vivo; conditions: 3 mg/kg/day IP for 16 days
Procedure: (§2) The brain of the Alzheimer's animal model of Experimental Example 3 was fixed with formaldehyde, and sliced into a small thickness. The amount of cells or specific protein in the sliced brain was measured with an image by histochemical staining. In the present experimental example, an antibody labeling an astrocyte was used to measure a change in astrocytes related to dementia. The results are illustrated in FIG. 5. That is, in the present experimental example, the hippocampus of the brain was histologically stained and a change in astrocytes around dementia substance amyloid beta was observed. Glial fibrillary acidic protein (GFAP) refers to astrocytes staining, 4′,6-diamidino-2-phenylindole (DAPI) marked cell nuclei and amyloid beta substance.

[6] = tested on: APP/PS1 mouse hippocampus astrocytes (GFAP); assay: Immunohistochemistry (IHC) II of brain tissue; type: in vivo
Procedure: as §2
The Alzheimer's animal model of Experimental Example 5 was used to perform histochemical staining of the brain tissue in the same manner as in Experimental Example 4, and the results are shown in FIG. 7.

[7] = tested on: APP/PS1+GiD Alzheimer's model mouse (APP+DTR); assay: Novel place recognition experiment; type: in vivo; conditions: 3 mg/kg/day i.p.
Procedure: The cognitive function related to hippocampus was assessed by a novel place recognition experiment to confirm the cognitive impairment and recovery. The same objects were put for a certain period of time for interaction, and after one hour, the position of only one object was changed. When having a normal cognitive function, a past memory is maintained to grow interest in a new object, but when having cognitive impairment, a new place is not determined. At this time, as an animal model, an APP/PS1+GiD Alzheimer's mode mouse which is a more closely developed model mouse to the phenomenon shown in the Alzheimer's dementia patient was used. The APP/PS1+GiD Alzheimer's model mouse was produced referring to Nature Neuroscience 23, 1555-1566 (2020).
In the present experiment, APP/PS1+GiD was produced by injecting AAV-GFAP104-DTR-GFP virus into the hippocampus of the APP/PS1 mouse, and hereinafter, is referred to as “APP+DTR”. In addition, the product obtained by injecting AAV-GFAP104-GFP virus into the hippocampus of the APP/PS1 mouse was referred to as “APP+GFP”. In addition, APP+DTR to which the aminoaromatic compound of the present invention, KDS12025 (Example 21) was administered was referred to as “APP+DTR+KDS12025”. […]

[8] = Blood brain barrier (BBB) permeability analysis (PAMPA); type: in vitro ADME
Procedure: Based on J Med Chem. 2001 Mar. 15; 44 (6):923-30., an artificial blood brain barrier (BBB) was produced by a parallel artificial membrane permeability assay (PAMPA), and the permeability of the drug was assessed.

hemoglobin (Hb), sequence (P69905 2-142 limits assumed): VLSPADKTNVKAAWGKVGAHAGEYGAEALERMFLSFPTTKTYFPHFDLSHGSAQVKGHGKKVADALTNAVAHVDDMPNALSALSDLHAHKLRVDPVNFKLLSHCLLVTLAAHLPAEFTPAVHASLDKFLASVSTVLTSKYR
hemoglobin (Hb), sequence (P68871 2-147 limits assumed): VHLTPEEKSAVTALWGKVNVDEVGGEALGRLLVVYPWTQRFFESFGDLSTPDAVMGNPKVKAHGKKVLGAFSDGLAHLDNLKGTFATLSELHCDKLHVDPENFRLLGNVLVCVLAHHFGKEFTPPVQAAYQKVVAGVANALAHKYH

## CNc1ccc(NCCc2ccccc2OC)cc1 [Example 21]
[1]
  memory in passive avoidance test: recovered memory
APP/PS1 mouse [2]
  latency to dark room (impaired memory): significantly recovered
WT mouse (C57BL/6 mouse); C57BL/6, mouse, in vivo, ip, 300 mg/kg
  animals died: about 50%
WT mouse (C57BL/6 mouse); mouse, in vivo, ip, 1000 mg/kg
  toxicity (death of animals): showed toxicity
WT mouse (C57BL/6 mouse); single dose 100 mg/kg IP, C57BL/6 mouse
  lethal toxicity: lethal toxicity was not shown
APP/PS1 mouse [3]; 3 mg/kg/day IP for one week
  memory in passive avoidance test: maintained its memory similarly to the healthy normal mouse
APP/PS1 mouse [3]; 10 mg/kg/day IP for one week
  memory in passive avoidance test: maintained its memory similarly to the healthy normal mouse
Hemoglobin (Hb)
  EC50: 60 nM
[4]
  tonic GABA: decreased tonic GABA
[5]
  GFAP (astrocytes) in hippocampus: decreased GFAP
[6]; 3 mg/kg/day IP for one week
  astrocytes (GFAP staining) in hippocampus: astrocytes returned to a healthy normal level
[6]; 10 mg/kg/day IP for one week
  astrocytes (GFAP staining) in hippocampus: astrocytes returned to a healthy normal level
[7]
  cognitive function (novel place recognition): recovered cognitive function
[8]
  Papp at 50 μM: 67.4 ×10⁻⁶ cm/s
